This is an account of results in publication PMC3961306, “Comparison of the Cancer Gene Targeting and Biochemical Selectivities of All Targeted Kinase Inhibitors Approved for Clinical Use” (PLoS ONE, 2014).

Holding throughout (assay): Kinase profiling in a biochemical assay panel (mobility shift assays and ELISA), %-inhibition at 1 μM; selectivity entropy
(In general: ELISA stands for enzyme-linked immunosorbent assay.)

Assay [1] addresses panel of more than 300 wild-type and mutant kinases (313 kinase panel) (Homo sapiens, UniProt P08069). The settings on record: kinase IGF1R; compound at 1 μM.
For assay [2], the target named is panel of more than 300 wild-type and mutant kinases (313 kinase panel) (Homo sapiens, UniProt Q9HCP0). The conditions noted are these: kinase CK1γ1; 1 μM compound.
Assay [3] addresses T1, panel of more than 300 wild-type and mutant kinases (313 kinase panel) (Homo sapiens, UniProt Q8TF76).
T1 sequence (Q8TF76 1-798): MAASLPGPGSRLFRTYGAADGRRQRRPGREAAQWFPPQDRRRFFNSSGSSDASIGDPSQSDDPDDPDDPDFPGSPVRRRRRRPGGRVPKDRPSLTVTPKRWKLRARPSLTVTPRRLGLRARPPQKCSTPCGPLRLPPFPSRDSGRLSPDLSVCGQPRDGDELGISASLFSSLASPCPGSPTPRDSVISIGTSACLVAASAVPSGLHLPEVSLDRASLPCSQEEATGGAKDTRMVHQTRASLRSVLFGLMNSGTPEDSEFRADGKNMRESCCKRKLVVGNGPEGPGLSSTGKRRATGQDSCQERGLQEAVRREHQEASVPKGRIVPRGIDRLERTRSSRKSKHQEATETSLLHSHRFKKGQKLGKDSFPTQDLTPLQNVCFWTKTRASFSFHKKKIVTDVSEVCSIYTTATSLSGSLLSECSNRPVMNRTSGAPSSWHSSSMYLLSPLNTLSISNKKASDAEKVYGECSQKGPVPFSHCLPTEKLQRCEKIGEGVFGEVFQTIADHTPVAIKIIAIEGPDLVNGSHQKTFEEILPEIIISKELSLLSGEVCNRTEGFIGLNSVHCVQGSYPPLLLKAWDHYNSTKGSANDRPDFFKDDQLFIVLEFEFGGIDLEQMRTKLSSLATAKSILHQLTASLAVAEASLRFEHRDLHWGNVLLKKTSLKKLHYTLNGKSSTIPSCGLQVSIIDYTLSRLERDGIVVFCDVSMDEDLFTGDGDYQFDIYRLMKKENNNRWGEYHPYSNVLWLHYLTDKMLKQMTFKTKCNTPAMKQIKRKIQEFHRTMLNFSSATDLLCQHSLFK
The conditions noted are these: kinase Haspin; compound at 1 μM.

The target in assay [4] is panel of more than 300 wild-type and mutant kinases (313 kinase panel) (Homo sapiens, UniProt Q86Z02). The conditions noted are these: kinase HIPK1; compound at 1 μM.
Assay [5] concerns the target panel of more than 300 wild-type and mutant kinases (313 kinase panel) (Homo sapiens, UniProt P17612).
Assay [6] has as its target T2, panel of more than 300 wild-type and mutant kinases (313 kinase panel) (Homo sapiens, UniProt P51813).
T2 sequence (P51813 1-675): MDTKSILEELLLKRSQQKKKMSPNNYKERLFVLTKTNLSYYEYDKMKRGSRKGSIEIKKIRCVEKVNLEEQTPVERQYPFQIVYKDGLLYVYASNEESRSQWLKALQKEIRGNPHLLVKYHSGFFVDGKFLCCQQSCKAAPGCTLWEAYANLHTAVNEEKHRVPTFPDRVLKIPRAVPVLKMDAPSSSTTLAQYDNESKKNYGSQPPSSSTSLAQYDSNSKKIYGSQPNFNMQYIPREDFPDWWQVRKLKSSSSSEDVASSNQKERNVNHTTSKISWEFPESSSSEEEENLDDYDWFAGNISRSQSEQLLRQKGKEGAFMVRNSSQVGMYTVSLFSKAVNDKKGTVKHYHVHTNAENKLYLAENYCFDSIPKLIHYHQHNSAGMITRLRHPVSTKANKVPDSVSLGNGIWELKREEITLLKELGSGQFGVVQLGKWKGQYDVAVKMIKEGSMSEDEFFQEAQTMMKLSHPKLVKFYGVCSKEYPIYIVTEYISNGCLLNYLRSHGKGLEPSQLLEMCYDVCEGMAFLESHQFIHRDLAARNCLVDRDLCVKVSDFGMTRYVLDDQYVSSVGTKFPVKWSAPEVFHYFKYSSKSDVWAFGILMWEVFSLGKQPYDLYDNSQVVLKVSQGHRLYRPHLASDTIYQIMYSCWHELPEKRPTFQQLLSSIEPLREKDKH
The settings on record: kinase BMX; 1 μM compound.

Assay [7] concerns the target T3, panel of more than 300 wild-type and mutant kinases (313 kinase panel) (Homo sapiens, UniProt Q9H093).
T3 sequence (Q9H093 1-628): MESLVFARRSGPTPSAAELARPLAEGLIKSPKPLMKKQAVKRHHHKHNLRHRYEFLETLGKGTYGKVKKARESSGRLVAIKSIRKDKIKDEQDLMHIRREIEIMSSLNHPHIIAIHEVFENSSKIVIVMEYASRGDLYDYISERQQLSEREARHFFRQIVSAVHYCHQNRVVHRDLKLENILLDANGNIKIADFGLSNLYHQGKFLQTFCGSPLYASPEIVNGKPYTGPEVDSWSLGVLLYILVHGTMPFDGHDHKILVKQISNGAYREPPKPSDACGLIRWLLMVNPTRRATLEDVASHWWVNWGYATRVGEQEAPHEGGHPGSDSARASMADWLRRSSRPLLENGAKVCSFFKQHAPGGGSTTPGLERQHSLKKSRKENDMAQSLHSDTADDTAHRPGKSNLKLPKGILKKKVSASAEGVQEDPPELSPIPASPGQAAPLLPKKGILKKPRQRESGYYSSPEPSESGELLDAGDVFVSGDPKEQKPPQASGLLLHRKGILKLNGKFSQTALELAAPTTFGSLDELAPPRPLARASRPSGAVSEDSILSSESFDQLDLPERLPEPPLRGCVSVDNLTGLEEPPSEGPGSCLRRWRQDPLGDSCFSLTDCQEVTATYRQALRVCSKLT
The settings on record: kinase NuaK2; 1 μM.

Assay [8] deals with panel of more than 300 wild-type and mutant kinases (313 kinase panel) (Homo sapiens, UniProt P06493). The conditions noted are these: kinase CDC2/CycB1; 1 μM compound.

Each structure is given as a SMILES string.

In the case of `CNC(=O)c1cc(Oc2ccc(NC(=O)Nc3ccc(Cl)c(C(F)(F)F)c3)c(F)c2)ccn1` [regorafenib], the “%-inhibition of IGF1R” value in assay [1] is on record as -1.72%. In addition, the “%-inhibition, CK1γ1” value in assay [2] is given as -8%. The “%-inhibition of Haspin” value in assay [3] is -8%. Also, in assay [4], the “%-inhibition of HIPK1” value stood at 47%. Besides, in assay [5] (kinase PKACα, 1 μM), the “%-inhibition of PKACα” value was -5.47%. Further, in assay [6], the “%-inhibition, BMX” value is recorded as -1.77%. Moreover, the “%-inhibition of NuaK2” value in assay [7] is recorded as -24%. In addition, the “%-inhibition, CDC2/CycB1” value in assay [8] amounted to 0.529%.
As for `N#CC[C@H](C1CCCC1)n1cc(-c2ncnc3[nH]ccc23)cn1` [ruxolitinib], the “%-inhibition of IGF1R” value in assay [1] came to 1.31%. The “%-inhibition, CK1γ1” value in assay [2] is recorded as -4%. Besides, the “%-inhibition of Haspin” value in assay [3] is on record as -6.62%. Moreover, in assay [4], the “%-inhibition of HIPK1” value is given as 3%. The “%-inhibition of PKACα” value in assay [5] (1 µM) worked out at 48%. The “%-inhibition, BMX” value in assay [6] was 6.6%. The “%-inhibition of NuaK2” value in assay [7] was found to be 41%. Besides, in assay [8], the “%-inhibition, CDC2/CycB1” value turned out to be 0.106%.
For the compound `CO[C@H]1C[C@@H]2CC[C@@H](C)[C@@](O)(O2)C(=O)C(=O)N2CCCC[C@H]2C(=O)O[C@H]([C@H](C)C[C@@H]2CC[C@@H](OC(=O)C(C)(CO)CO)[C@H](OC)C2)CC(=O)[C@H](C)/C=C(\C)[C@@H](O)[C@@H](OC)C(=O)[C@H](C)C[C@H](C)/C=C/C=C/C=C/1C` [temsirolimus], in assay [1], the “%-inhibition of IGF1R” value is reported as -4.62%. Further, the “%-inhibition, CK1γ1” value in assay [2] was -4.47%. For the same compound, the “%-inhibition of Haspin” value in assay [3] is 3%. Further, the “%-inhibition of HIPK1” value in assay [4] is reported as -0.101%. In addition, in assay [5] (kinase PKACα, 1 μM), the “%-inhibition of PKACα” value is listed as -6%. Also, in assay [6], the “%-inhibition, BMX” value was -7%. Also, the “%-inhibition of NuaK2” value in assay [7] was -5.44%. Besides, in assay [8], the “%-inhibition, CDC2/CycB1” value is recorded as -23%.
In the case of `CC(=O)Nc1cccc(-n2c(=O)n(C3CC3)c(=O)c3c(Nc4ccc(I)cc4F)n(C)c(=O)c(C)c32)c1` [trametinib], the “%-inhibition of IGF1R” value in assay [1] is reported as -10%. For the same compound, the “%-inhibition, CK1γ1” value in assay [2] is 0.211%. Besides, the “%-inhibition of Haspin” value in assay [3] is 5%. Also, in assay [4], the “%-inhibition of HIPK1” value is -3.71%. The “%-inhibition of PKACα” value in assay [5] (kinase PKACα, 1 μM) stood at 8.52%. Besides, the “%-inhibition, BMX” value in assay [6] was -3.22%. Further, the “%-inhibition of NuaK2” value in assay [7] was found to be 9%. The “%-inhibition, CDC2/CycB1” value in assay [8] is recorded as 8%.
Consider `COc1cc2c(Nc3ccc(Br)cc3F)ncnc2cc1OCC1CCN(C)CC1` [vandetanib], for which the “%-inhibition of IGF1R” value in assay [1] is reported as -1.72%. Also, the “%-inhibition, CK1γ1” value in assay [2] was -4.74%. Besides, the “%-inhibition of Haspin” value in assay [3] is listed as -3.76%. Besides, the “%-inhibition of HIPK1” value in assay [4] is -8%. Also, the “%-inhibition of PKACα” value in assay [5] (kinase PKACα, 1 μM) is listed as 1.29%. In addition, the “%-inhibition, BMX” value in assay [6] is on record as 18%. Moreover, the “%-inhibition of NuaK2” value in assay [7] is -14%. Further, in assay [8], the “%-inhibition, CDC2/CycB1” value is -0.952%.
For `CCCS(=O)(=O)Nc1ccc(F)c(C(=O)c2c[nH]c3ncc(-c4ccc(Cl)cc4)cc23)c1F` [vemurafenib], the “%-inhibition of IGF1R” value in assay [1] turned out to be 10%. Also, the “%-inhibition, CK1γ1” value in assay [2] is on record as -2%. For the same compound, in assay [3], the “%-inhibition of Haspin” value was -3%. For the same compound, the “%-inhibition of HIPK1” value in assay [4] is reported as -4.72%. The “%-inhibition of PKACα” value in assay [5] (kinase PKACα, 1 μM) is given as -4%. The “%-inhibition, BMX” value in assay [6] turned out to be 24%. Moreover, the “%-inhibition of NuaK2” value in assay [7] turned out to be 4.36%. Moreover, in assay [8], the “%-inhibition, CDC2/CycB1” value turned out to be 10%.
